{"source": "patent US20090258097A1", "about": "“EXTRACTS AND COMPOUNDS FROM \"AGAPANTHUS AFRICANUS\" AND THEIR USE AS BIOLOGICAL PLANT PROTECTING AGENTS” (AGRARFORUM AG, priority 2005, published 2009)", "key": {"[1]": {"test_system": "Fusarium oxysporum", "assay": "In vitro mycelial growth inhibition (agar dilution)", "assay_type": "cell-based", "details": "for concentration showing strong antifungal activity: purified compounds"}, "[2]": {"test_system": "Sporisorium sorghi", "assay": "Sorghum covered kernel smut field trial (seed treatment)", "assay_type": "in vivo", "details": "extract 2.0 g/l, Thiram 0.25% (w/w)"}, "[3]": {"test_system": "Sporisorium cruentum", "assay": "Sorghum loose kernel smut field trial (seed treatment)", "assay_type": "in vivo", "details": "extract 2.0 g/l, Thiram 0.25% (w/w)"}, "[4]": {"details": "pure compounds from the most active P-TLC root fraction, following acidification"}}}
{"compound": "CC(=O)Oc1ccc(/C=C/C(=O)c2ccc(OC(C)=O)cc2OC(C)=O)cc1", "note": "[Compound 9, trans-4,2′,4′-Tri-O-acetylchalcone]", "values": [{"measurement": "% mycelial growth inhibition of F. oxysporum", "setting": "[1]; [4]", "result": 97, "unit": "%"}, {"measurement": "concentration showing strong antifungal activity", "setting": "[1]", "result": "about 625 μg/ml"}]}
{"compound": "CC(=O)Oc1cc(OC(C)=O)c2c(c1)OC(c1ccc(OC(C)=O)c(OC(C)=O)c1)CC2=O", "note": "(centres unmarked) [Compound 8, 5,7,3′4′-tetra-O-acetylflavanone]", "values": [{"measurement": "% mycelial growth inhibition of F. oxysporum", "setting": "[1]; [4]", "result": 93, "unit": "%"}, {"measurement": "concentration showing strong antifungal activity", "setting": "[1]", "result": "about 625 μg/ml"}]}
{"compound": "CN(C)C(=S)SSC(=S)N(C)C", "note": "[Thiram]", "values": [{"measurement": "% mean smut incidence", "setting": "[2]", "result": 0, "unit": "b %"}, {"measurement": "Yield (ton ha^−1)", "setting": "[2]", "result": 2.6, "unit": "ab ton ha^−1"}, {"measurement": "% mean smut incidence", "setting": "[3]", "result": 0, "unit": "b %"}, {"measurement": "Yield (ton ha^−1)", "setting": "[3]", "result": 2.1, "unit": "ab ton ha^−1"}]}
{"compound": "3-[{O-β-D-glucopyranosyl-(1″-3′)-α-L-rhamnosyl-(1″-2′)}-β-D-glucopyranosyloxy]agapanthegenin [Compound 1]", "values": [{"measurement": "% mycelial growth inhibition of F. oxysporum", "setting": "[1]; pure compound from the most active P-TLC aerial plant part fraction", "result": 100, "unit": "%"}, {"measurement": "% mycelial growth inhibition of F. oxysporum", "setting": "[1]; [4]", "result": 100, "unit": "%"}, {"measurement": "concentration showing strong antifungal activity", "setting": "[1]", "result": "approximately 125 μg/ml"}]}
